Laboratory results reported in US12465050B2, “Compositions comprising a pyridine carboxylate herbicide and protoporphyrinogen oxidase (protox) inhibitor herbicides” (priority 2018, dated 2025).

Legend:
Assay type in all cases: in vivo
[1] = test system: Echinochloa crus-galli (barnyard grass); experiment: Greenhouse postemergence herbicidal effect on ECHCG
Source text: (§1) Greenhouse Trial Methodology—Evaluation of Postemergence Herbicidal Effect
(§2) Seeds of the desired test plant species were planted in a 90:10% v/v (volume/volume) mixture of PRO-MIX® BX (Premier Tech Horticulture, Quakertown, Pa., USA) and PROFILE® GREENS GRADE™ (Profile Products LLC, Buffalo Grove, Ill., USA) planting mixture, which typically has a pH of 5.2 to 6.2 and an organic matter content of at least 50 percent, in plastic pots with a surface area of 103.2 square centimeters (cm^2). In some aspects or embodiments, to help ensure good germination and healthy plants, a fungicide treatment and/or other chemical or physical treatment was applied. The plants were grown for 7-36 days (d) in a greenhouse with an approximate 14-hour (h) photoperiod which was maintained at about 23° C. during the day and 22° C. during the night. Nutrients and water were added on a regular basis and supplemental lighting was provided with overhead metal halide 1000-Watt lamps as necessary. The plants were employed for testing when they reached the second or third true leaf stage.
(§3) Emulsifiable concentrates of each of each pyridine carboxylate herbicide (Compound A or Compound B) were prepared at 100 grams acid equivalent per liter (g ae/L). The emulsifiable concentrates also included a safener, cloquintocet mexyl, at 120 grams active ingredient per liter (g ai/L). […]
(§4) The treated plants and control plants were placed in a greenhouse as described above and watered by sub-irrigation to prevent wash-off of the test compounds. After 20-22 d, the condition of the test plants as compared with that of the control plants was determined visually and scored on a scale of 0 to 100 percent where 0 corresponds to no injury and 100 corresponds to complete kill.

[2] = test system: Abutilon theophrasti (velvetleaf); experiment: Greenhouse postemergence herbicidal effect on ABUTH
Source text: as §1, §2, §3, §4

[3] = test system: Amaranthus retroflexus (pigweed); experiment: Greenhouse postemergence herbicidal effect on AMARE
Source text: as §1, §2
(§5) Emulsifiable concentrates of each of each pyridine carboxylate herbicide (Compound A or Compound B) were prepared at 100 grams acid equivalent per liter (g ae/L). The emulsifiable concentrates also included a safener, cloquintocet mexyl, at 120 grams active ingredient per liter (g ai/L). An aliquot of each emulsifiable concentrate was placed in a 25 mL glass vial and diluted with an aqueous mixture of 1.25% (v/v) ACTIROB® B esterified rapeseed oil (Bayer Crop Science, Research Triangle Park, N.C., USA) or MSO® Concentrate with LECI-TECH® methylated soybean oil (Loveland Products, Loveland, Colo., USA) to obtain concentrated stock solutions at the highest application rate for each herbicide, based upon a 12 milliliter (mL) application volume at a rate of 187 liters per hectare (L/ha). The concentrated stock solutions were further diluted with an aqueous mixture of 1.25% v/v ACTIROB® B or MSO® Concentrate with LECI-TECH® to obtain stock solutions at reduced application rates for each herbicide. Spray solutions of the herbicide combinations (Compound A or Compound B plus PROTOX inhibitor herbicide) were prepared by adding weighed amounts or aliquots of the PROTOX inhibitor herbicides to the stock solutions of Compound A or Compound B to form 12-mL spray solutions in two-way combinations.
(§6) The spray solutions were applied to the plant material with an overhead Mandel track sprayer equipped with 8002E nozzles calibrated to deliver 187 L/ha over an application area of 0.503 square meters (m^2) at a spray height of 18 inches (43 centimeters (cm)) above the average plant canopy. Control plants were sprayed in the same manner with the solvent blank. All pyridine carboxylate herbicide (component a) application rates are given as “g ae/ha” and all PROTOX inhibitor herbicide (component b) application rates are given as “g ai/ha.”
as §4

[4] = test system: Salsola kali (Russian thistle); experiment: Greenhouse postemergence herbicidal effect on SASKR
Source text: as §1, §2, §5, §6, §4

[5] = test system: Papaver rhoeas (herbicide-resistant poppy); experiment: Greenhouse postemergence herbicidal effect on PAPRH-RES
Source text: as §1, §2
as §5, with “combinations. […]” for “combinations.”
as §4

[6] = test system: Triticum aestivum (winter wheat); experiment: Greenhouse postemergence phytotoxicity on crop TRZAW
Source text: as §1, §2
as §5, with “combinations. […]” for “combinations.”
as §4

[7] = Compound A 7.5, Saflufenacil 0 g/ha
[8] = Compound A 10, Saflufenacil 0 g/ha
[9] = Compound A 7.5, Pyraflufen-ethyl 0 g/ha
[10] = Compound A 10, Pyraflufen-ethyl 0 g/ha
[11] = Compound A 7.5, Oxyfluorfen 0 g/ha
[12] = Compound A 10, Oxyfluorfen 0 g/ha
[13] = Compound A 15, Oxyfluorfen 0 g/ha

## N#CCOC(=O)c1nc(-c2ccc3cc[nH]c3c2F)c(F)c(N)c1Cl [Compound A, cyanomethyl 4-amino-3-chloro-5-fluoro-6-(7-fluoro-1H-indol-6-yl)pyridine-2-carboxylate]
[1]; Compound A 7.5, Bifenox 0 g/ha
  % visual injury, Obs: 80%
[1]; Compound A 10, Bifenox 0 g/ha
  % visual injury, Obs: 88%
[2]; [7]
  % visual injury, Obs: 68%
[2]; [8]
  % visual injury, Obs: 80%
[3]; [9]
  % visual injury, Obs: 90%
[3]; [7]
  % visual injury, Obs: 88%
[3]; [10]
  % visual injury, Obs: 85%
[3]; [8]
  % visual injury, Obs: 88%
[4]; Compound A 7.5, Carfentrazone-ethyl 0 g/ha
  % visual injury, Obs: 45%
[4]; [11]
  % visual injury, Obs: 50%
[4]; Compound A 7.5, Pyraclonil 0 g/ha
  % visual injury, Obs: 45%
[4]; [9]
  % visual injury, Obs: 60%
[4]; Compound A 10, Carfentrazone-ethyl 0 g/ha
  % visual injury, Obs: 60%
[4]; [12]
  % visual injury, Obs: 60%
[4]; Compound A 10, Pyraclonil 0 g/ha
  % visual injury, Obs: 60%
[4]; [10]
  % visual injury, Obs: 63%
[4]; [13]
  % visual injury, Obs: 63%
[5]; [11]
  % visual injury, Obs: 96%
[5]; [12]
  % visual injury, Obs: 98%
[5]; [13]
  % visual injury, Obs: 100%
[6]; [11]
  % visual injury, Obs: 0%
[6]; [12]
  % visual injury, Obs: 0%
[6]; [13]
  % visual injury, Obs: 0%
